System: mammary carcinoma of the rat
Test: mammary tumours induced by benzidine in female Wistar rats
Assay type: in vivo
Settings: low dosage
Excerpt: For the development of active agents against tumours of the human sexual organs, an animal model closely similar to human tumours is needed, so that truly significant test results can be accomplished. The known “Huggins tumours” (C. Huggins et al., Rapid induction of mammary carcinoma in the rat and the influence of hormones, J. Exper. Med. 109, 25 (1959)) can be generated and combated easily, e.g. by endocrine manipulations and the usual chemotherapy (e.g. with endoxan®=cyclophosphamide monohydrate). In contrast, the tumours generated by benzidine in female Wistar rats require more time for induction and are (like human mammary tumour) only up to about 50% hormone dependent; they (like human mammary tumour) cannot be influenced effectively by chemotherapeutics and other methods of treatment in the art. Therefore, we have found the desired suitable animal model in Wistar rats with mammary tumours induced by benzidine.
20 female Wistar rats are treated with benzidine. The first benzidine dose is 150 mg/kg; then the doses are reduced to weekly 100 mg/kg. Then doses per 75 mg/kg follow within a gap of 14 days. There from a total dose of 1.225 g/kg results.
In total 29 mammary carcinomas are generated. […]
After the first tumour is generated (about 0.5 g) the benzidine application is stopped. […] The tumour size is determined tactually; experienced experimenters can determine it precisely to 0.1 g. […]

CN(C)/N=N/c1ccc2c(c1)CCC1C2CCC2(C)C(=O)CCC12 (stereo not shown) [Example 11, 3-(1,1-dimethyltriazenyl)-estrone]
effect against mammary carcinoma of the rat: very good effect at low dosage
